From ChEMBL document CHEMBL4308841, “Synthesis, in vitro antiproliferative activity, and kinase inhibitory effects of pyrazole-containing diarylureas and diarylamides” (Eur J Med Chem, 2018)

Assays:
HOP-62 = test: Growth inhibition of human HOP62 cells incubated for 48 hrs by sulforhodamine B assay; type: functional, cell-based; details: HOP-62, 48 h
SNB-19 = test: Growth inhibition of human SNB19 cells incubated for 48 hrs by sulforhodamine B assay; type: functional, cell-based; details: SNB-19, 48 h
M14 = test: Growth inhibition of human M14 cells incubated for 48 hrs by sulforhodamine B assay; type: functional, cell-based; details: M14, 48 h
SK-MEL-28 = test: Growth inhibition of human SK-MEL-28 cells incubated for 48 hrs by sulforhodamine B assay; type: functional, cell-based; details: SK-MEL-28, 48 h
OVCAR-4 = test: Growth inhibition of human OVCAR4 cells incubated for 48 hrs by sulforhodamine B assay; type: functional, cell-based; details: OVCAR-4, 48 h
A498 [1] = test: Growth inhibition of human A498 cells incubated for 48 hrs by sulforhodamine B assay; type: functional, cell-based; details: A498, 48 h
MCF7 = test: Growth inhibition of human MCF7 cells incubated for 48 hrs by sulforhodamine B assay; type: functional, cell-based; details: MCF7, 48 h
MDA-MB-231 = test: Growth inhibition of human MDA-MB-231 cells incubated for 48 hrs by sulforhodamine B assay; type: functional, cell-based; details: MDA-MB-231, 48 h
NCI-H460 [2] = test: Growth inhibition of human NCI-H460 cells assessed as cell growth at 0.01 uM incubated for 48 hrs by sulforhodamine B assay relative to control; type: functional; details: NCI-H460, 48 h, read-out: Activity
HCC 2998 = test: Growth inhibition of human HCC2998 cells assessed as cell growth at 0.01 uM incubated for 48 hrs by sulforhodamine B assay relative to control; type: functional; details: HCC 2998, 48 h, read-out: Activity
HT-29 = test: Growth inhibition of human HT-29 cells assessed as cell growth at 0.01 uM incubated for 48 hrs by sulforhodamine B assay relative to control; type: functional; details: HT-29, 48 h, read-out: Activity
Malme-3M [3] = test: Growth inhibition of human MALME-3M cells assessed as cell growth at 0.01 uM incubated for 48 hrs by sulforhodamine B assay relative to control; type: functional; details: read-out: Activity
OVCAR-8 = test: Growth inhibition of human OVCAR8 cells assessed as cell growth at 0.01 uM incubated for 48 hrs by sulforhodamine B assay relative to control; type: functional; details: OVCAR-8, 48 h, read-out: Activity
T47D = test: Growth inhibition of human T47D cells assessed as cell growth at 0.01 uM incubated for 48 hrs by sulforhodamine B assay relative to control; type: functional; details: read-out: Activity
NCI-H460 [4] = test: Growth inhibition of human NCI-H460 cells assessed as cell growth at 0.1 uM incubated for 48 hrs by sulforhodamine B assay relative to control; type: functional; details: NCI-H460, 48 h, read-out: Activity
HCT-15 = test: Growth inhibition of human HCT15 cells assessed as cell growth at 0.1 uM incubated for 48 hrs by sulforhodamine B assay relative to control; type: functional; details: HCT-15, 48 h, read-out: Activity
Malme-3M [5] = test: Growth inhibition of human MALME-3M cells assessed as cell growth at 0.1 uM incubated for 48 hrs by sulforhodamine B assay relative to control; type: functional; details: read-out: Activity
Hs-578T [6] = test: Growth inhibition of human Hs578T cells assessed as cell growth at 0.1 uM incubated for 48 hrs by sulforhodamine B assay relative to control; type: functional; details: read-out: Activity
SR = test: Growth inhibition of human SR cells assessed as cell growth at 1 uM incubated for 48 hrs by sulforhodamine B assay relative to control; type: functional; details: read-out: Activity
NCI-H522 = test: Growth inhibition of human NCI-H522 cells assessed as cell growth at 1 uM incubated for 48 hrs by sulforhodamine B assay relative to control; type: functional; details: NCI-H522, 48 h, read-out: Activity
UACC-62 = test: Growth inhibition of human UACC62 cells assessed as cell growth at 1 uM incubated for 48 hrs by sulforhodamine B assay relative to control; type: functional; details: UACC-62, 48 h, read-out: Activity
A498 [7] = test: Growth inhibition of human A498 cells assessed as cell growth at 1 uM incubated for 48 hrs by sulforhodamine B assay relative to control; type: functional; details: A498, 48 h, read-out: Activity
Hs-578T [8] = test: Growth inhibition of human Hs578T cells assessed as cell growth at 1 uM incubated for 48 hrs by sulforhodamine B assay relative to control; type: functional; details: read-out: Activity
BT-549 = test: Growth inhibition of human BT549 cells assessed as cell growth at 1 uM incubated for 48 hrs by sulforhodamine B assay relative to control; type: functional; details: BT-549, 48 h, read-out: Activity
NCI-H322M = test: Growth inhibition of human NCI-H322M cells assessed as cell growth at 100 uM incubated for 48 hrs by sulforhodamine B assay relative to control; type: functional; details: read-out: Activity
SW-620 = test: Growth inhibition of human SW620 cells assessed as cell growth at 100 uM incubated for 48 hrs by sulforhodamine B assay relative to control; type: functional; details: SW-620, 48 h, read-out: Activity
SF-295 = test: Growth inhibition of human SF295 cells assessed as cell growth at 100 uM incubated for 48 hrs by sulforhodamine B assay relative to control; type: functional; details: SF-295, 48 h, read-out: Activity
LOX IMVI = test: Growth inhibition of human LOXIMVI cells assessed as cell growth at 100 uM incubated for 48 hrs by sulforhodamine B assay relative to control; type: functional; details: read-out: Activity
[9] = read-out: LC50 (the source's name)
[10] = read-out: pLC50 (the source's name) (converted)

O=C(Nc1cccc(-n2cc(-c3ccncc3)c(-c3cc(O)cc(Cl)c3)n2)c1)c1ccc(N2CCOCC2)c(C(F)(F)F)c1
GI50 (HOP-62; read-out: GI50): 3.59 µM
CC50 (HOP-62; [9]): > 100 µM
TGI (HOP-62; read-out: TGI): 58.2 µM
GI50 (HOP-62; read-out: pGI50 (converted)): 3.55 µM
CC50 (HOP-62; [10]): > 100 µM
TGI (HOP-62; read-out: pTGI (converted)): 58.9 µM
GI50 (SNB-19; read-out: GI50): 3.33 µM
CC50 (SNB-19; [9]): > 100 µM
TGI (SNB-19; read-out: TGI): 33.8 µM
GI50 (SNB-19; read-out: pGI50 (converted)): 3.31 µM
CC50 (SNB-19; [10]): > 100 µM
TGI (SNB-19; read-out: pTGI (converted)): 33.9 µM
GI50 (M14; read-out: GI50): 0.774 µM
CC50 (M14; [9]): 54.5 µM
TGI (M14; read-out: TGI): 21.4 µM
GI50 (M14; read-out: pGI50 (converted)): 0.776 µM
CC50 (M14; [10]): 8.51 µM
TGI (M14; read-out: pTGI (converted)): 2.75 µM
GI50 (SK-MEL-28; read-out: GI50): 0.759 µM
CC50 (SK-MEL-28; [9]): > 100 µM
TGI (SK-MEL-28; read-out: TGI): 32.7 µM
GI50 (SK-MEL-28; read-out: pGI50 (converted)): 0.759 µM
CC50 (SK-MEL-28; [10]): > 100 µM
TGI (SK-MEL-28; read-out: pTGI (converted)): 3.24 µM
GI50 (OVCAR-4; read-out: GI50): > 100 µM
CC50 (OVCAR-4; [9]): > 100 µM
TGI (OVCAR-4; read-out: TGI): > 100 µM
GI50 (OVCAR-4; read-out: pGI50 (converted)): > 100 µM
CC50 (OVCAR-4; [10]): > 100 µM
TGI (OVCAR-4; read-out: pTGI (converted)): > 100 µM
GI50 (A498 [1]; read-out: GI50): 1.94 µM
CC50 (A498 [1]; [9]): > 100 µM
TGI (A498 [1]; read-out: TGI): 73.2 µM
GI50 (A498 [1]; read-out: pGI50 (converted)): 19.5 µM
CC50 (A498 [1]; [10]): > 100 µM
TGI (A498 [1]; read-out: pTGI (converted)): 72.4 µM
GI50 (MCF7; read-out: GI50): 4.18 µM
LC50 (MCF7; read-out: LC50): > 100 µM
TGI (MCF7; read-out: TGI): > 100 µM
GI50 (MCF7; read-out: pGI50 (converted)): 4.17 µM
LC50 (MCF7; read-out: pLC50 (converted)): > 100 µM
TGI (MCF7; read-out: pTGI (converted)): > 100 µM
GI50 (MDA-MB-231; read-out: GI50): 0.327 µM
CC50 (MDA-MB-231; [9]): 27 µM
TGI (MDA-MB-231; read-out: TGI): 16.6 µM
GI50 (MDA-MB-231; read-out: pGI50 (converted)): 0.324 µM
CC50 (MDA-MB-231; [10]): 26.9 µM
TGI (MDA-MB-231; read-out: pTGI (converted)): 1.66 µM
growth at 0.01 µM (NCI-H460 [2]): 104%
growth at 0.01 µM (HCC 2998): 102%
growth at 0.01 µM (HT-29): 93%
growth at 0.01 µM (Malme-3M [3]): 58%
growth at 0.01 µM (OVCAR-8): 101%
growth at 0.01 µM (T47D): 97%
growth at 0.1 µM (NCI-H460 [4]): 104%
growth at 0.1 µM (HCT-15): 94%
growth at 0.1 µM (Malme-3M [5]): 85%
growth at 0.1 µM (Hs-578T [6]): 90%
growth at 1 µM (SR): 9%
growth at 1 µM (NCI-H522): 40%
growth at 1 µM (UACC-62): 58%
growth at 1 µM (A498 [7]): 98%
growth at 1 µM (Hs-578T [8]): 59%
growth at 1 µM (BT-549): 75%
growth at 100 µM (NCI-H322M): 21%
growth at 100 µM (SW-620): -19%
growth at 100 µM (SF-295): -81%
growth at 100 µM (LOX IMVI): -45%
